Values of other authors, collected in patent publication US8673343B2, “Preparation and administration of jojoba product for reducing weight, fat and blood lipid levels and for the prevention and treatment of cancer” (Yiwu Jiangr Bio-Technology HK Corp., priority 2001, dated 2014).

Tests used:
[1] = growing rats, long-term administration of lower doses
[2] = animal and human studies

## CO[C@H]1[C@@H](OC)C[C@@H](O[C@@H]2O[C@H](CO)[C@@H](O)[C@H](O)[C@H]2O)/C(=C\C#N)[C@@H]1O [simmondsin, 2-(cyanomethylene)-3-hydroxy-4,5-dimethoxycyclohexyl beta-D-glucoside]
[1]
  side effects: without showing any side effects
  sustained food intake inhibition: about 20%
[2]
  other side effects commonly associated with cancer chemotherapy: no other side effects
